This note sets out measurements from article PMC5218480 (PLoS ONE, 2017).

For this assay, the system named is MV-4-11 cells. As to the kind of experiment: Gene expression microarray analysis (Affymetrix PrimeView) and GSEA. Format: cell-based, human. Also on record: RFU PODN (11730768_x_at) / Fold change /veh PODN (11730768_x_at) / RFU LINC00158 (11744669_a_at) / Fold change /veh LINC00158 (11744669_a_at) / RFU DUSP10 (11751237_a_at) / Fold change /veh DUSP10 (11751237_a_at) / RFU ID3 (11757404_x_at) / Fold change /veh ID3 (11757404_x_at) / RFU PLEKHG5 (11737974_s_at) / Fold change /veh PLEKHG5 (11737974_s_at) / RFU LRRC4B (11730491_at) / Fold change /veh LRRC4B (11730491_at) / RFU GIMAP4 (11747438_a_at) / Fold change /veh GIMAP4 (11747438_a_at) / RFU KRT8 (11758183_x_at) / Fold change /veh KRT8 (11758183_x_at) / RFU CNN1 (11734310_a_at) / Fold change /veh CNN1 (11734310_a_at) / RFU VPS37D (11726825_at) / Fold change /veh VPS37D (11726825_at) / RFU C10orf10 (11716522_x_at) / Fold change /veh C10orf10 (11716522_x_at) / RFU KIR2DL2 /// KIR2DL4 /// KIR2DL5A /// KIR2DL5B /// KIR2DS1 /// KIR2DS2 /// KIR2DS3 /// KIR2DS4 /// KIR3DL3 /// KIR3DL3 /// KIR3DS1 (11738374_at) / Fold change /veh KIR2DL2 /// KIR2DL4 /// KIR2DL5A /// KIR2DL5B /// KIR2DS1 /// KIR2DS2 /// KIR2DS3 /// KIR2DS4 /// KIR3DL3 /// KIR3DL3 /// KIR3DS1 (11738374_at) / RFU C1QL1 (11718748_at) / Fold change /veh C1QL1 (11718748_at) / RFU TMPRSS4 (11747572_a_at) / Fold change /veh TMPRSS4 (11747572_a_at) / RFU HAMP (11756126_x_at) / Fold change /veh HAMP (11756126_x_at) / RFU RNFT2 (11725882_a_at) / Fold change /veh RNFT2 (11725882_a_at) / RFU NR4A2 (11747474_a_at) / Fold change /veh NR4A2 (11747474_a_at) / RFU ABCC12 (11746883_a_at) / Fold change /veh ABCC12 (11746883_a_at) / RFU TMEM136 (11760407_x_at) / Fold change /veh TMEM136 (11760407_x_at) / RFU CLDN22 /// WWC2 (11732394_at) / Fold change /veh CLDN22 /// WWC2 (11732394_at) / RFU HLA-DPB1 (11760878_x_at) / Fold change /veh HLA-DPB1 (11760878_x_at) / RFU SPINT1 (11716480_a_at) / Fold change /veh SPINT1 (11716480_a_at) / RFU GAP43 (11754022_s_at) / Fold change /veh GAP43 (11754022_s_at) / RFU A4GNT (11735810_at) / Fold change /veh A4GNT (11735810_at) / RFU PRB3 (11715151_x_at) / Fold change /veh PRB3 (11715151_x_at) / RFU TUBB4B (11761932_at) / Fold change /veh TUBB4B (11761932_at) / RFU CAPN14 (11732068_a_at) / Fold change /veh CAPN14 (11732068_a_at) / RFU TMCC2 (11721928_a_at) / Fold change /veh TMCC2 (11721928_a_at) / RFU IRGQ (11745062_a_at) / Fold change /veh IRGQ (11745062_a_at) / RFU FAM174B (11720279_a_at) / Fold change /veh FAM174B (11720279_a_at) / RFU TMPRSS4 (11748680_a_at) / Fold change /veh TMPRSS4 (11748680_a_at) / RFU FAM212B (11763350_a_at) / Fold change /veh FAM212B (11763350_a_at) / RFU PLEKHG5 (11743358_a_at) / Fold change /veh PLEKHG5 (11743358_a_at) / RFU ZSCAN30 (11745921_a_at) / Fold change /veh ZSCAN30 (11745921_a_at) / RFU CMKLR1 (11741424_a_at) / Fold change /veh CMKLR1 (11741424_a_at) / RFU LOC101060620 /// MAPK8IP1 (11723275_at) / Fold change /veh LOC101060620 /// MAPK8IP1 (11723275_at) / RFU SPTSSB (11747773_x_at) / Fold change /veh SPTSSB (11747773_x_at) / RFU PRSS12 (11739890_at) / Fold change /veh PRSS12 (11739890_at) / RFU BIN1 (11741810_x_at) / Fold change /veh BIN1 (11741810_x_at) / RFU WNT11 (11732464_a_at) / Fold change /veh WNT11 (11732464_a_at) / RFU C10orf10 (11716521_a_at) / Fold change /veh C10orf10 (11716521_a_at) / RFU C5orf56 (11738089_at) / Fold change /veh C5orf56 (11738089_at) / RFU CYB561 (11721691_x_at) / Fold change /veh CYB561 (11721691_x_at) / RFU ANKRD19P (11752326_a_at) / Fold change /veh ANKRD19P (11752326_a_at) / RFU OR2T12 /// OR2T33 /// OR2T8 (11738714_s_at) / Fold change /veh OR2T12 /// OR2T33 /// OR2T8 (11738714_s_at) / RFU VCAN (11748164_a_at) / Fold change /veh VCAN (11748164_a_at) / RFU JSRP1 (11732532_at) / Fold change /veh JSRP1 (11732532_at) / RFU KRTAP10-11 (11738290_x_at) / Fold change /veh KRTAP10-11 (11738290_x_at) / RFU MYO3A (11730013_a_at) / Fold change /veh MYO3A (11730013_a_at) / RFU EBF3 (11725865_a_at) / Fold change /veh EBF3 (11725865_a_at) / RFU CAMK2N1 (11719241_x_at) / Fold change /veh CAMK2N1 (11719241_x_at) / RFU C5orf56 (11738088_a_at) / Fold change /veh C5orf56 (11738088_a_at) / RFU OLFML3 (11715873_a_at) / Fold change /veh OLFML3 (11715873_a_at) / RFU LOC100653217 /// NTM (11731650_a_at) / Fold change /veh LOC100653217 /// NTM (11731650_a_at) / RFU MAPK11 (11762145_a_at) / Fold change /veh MAPK11 (11762145_a_at) / RFU FIZ1 (11724087_x_at) / Fold change /veh FIZ1 (11724087_x_at) / RFU OASL (11726364_x_at) / Fold change /veh OASL (11726364_x_at) / RFU SOX15 (11748057_x_at) / Fold change /veh SOX15 (11748057_x_at) / RFU CD79A (11719716_a_at) / Fold change /veh CD79A (11719716_a_at) / RFU HIST1H1D (11736915_at) / Fold change /veh HIST1H1D (11736915_at) / RFU CASKIN2 (11723855_a_at) / Fold change /veh CASKIN2 (11723855_a_at) / RFU LOC730098 (11760151_x_at) / Fold change /veh LOC730098 (11760151_x_at) / RFU OR4N2 (11742367_at) / Fold change /veh OR4N2 (11742367_at) / RFU PRRT2 (11749266_a_at) / Fold change /veh PRRT2 (11749266_a_at) / RFU SNX32 (11753110_a_at) / Fold change /veh SNX32 (11753110_a_at) / RFU CDHR5 (11726645_a_at) / Fold change /veh CDHR5 (11726645_a_at) / RFU RCAN1 (11760418_a_at) / Fold change /veh RCAN1 (11760418_a_at) / RFU FAM167A (11723789_a_at) / Fold change /veh FAM167A (11723789_a_at) / RFU FAM26E (11764081_at) / Fold change /veh FAM26E (11764081_at) / RFU ISYNA1 (11749810_s_at) / Fold change /veh ISYNA1 (11749810_s_at) / RFU ACY1 (11761880_at) / Fold change /veh ACY1 (11761880_at) / RFU 11764098_at / Fold change /veh 11764098_at / RFU SAMD14 (11745864_x_at) / Fold change /veh SAMD14 (11745864_x_at) / RFU NPB (11741838_a_at) / Fold change /veh NPB (11741838_a_at) / RFU TMPRSS6 (11731388_a_at) / Fold change /veh TMPRSS6 (11731388_a_at) / RFU KRTAP10-2 (11738614_at) / Fold change /veh KRTAP10-2 (11738614_at) / RFU ARHGAP8 /// PRR5-ARHGAP8 (11727945_x_at) / Fold change /veh ARHGAP8 /// PRR5-ARHGAP8 (11727945_x_at) / RFU KRTAP5-7 /// NADSYN1 (11734609_at) / Fold change /veh KRTAP5-7 /// NADSYN1 (11734609_at) / RFU RASL12 (11751679_a_at) / Fold change /veh RASL12 (11751679_a_at) / RFU CDKN2B (11736163_a_at) / Fold change /veh CDKN2B (11736163_a_at) / RFU PRF1 (11729649_at) / Fold change /veh PRF1 (11729649_at) / RFU, ZNF638 /// ZNF638-IT1 / Fold change vs veh, ZNF638 /// ZNF638-IT1 / RFU, PANK3 / Fold change vs veh, PANK3 / RFU, SH3YL1 / Fold change vs veh, SH3YL1 / RFU, ZEB2 / Fold change vs veh, ZEB2 / RFU, NRIP1 / Fold change vs veh, NRIP1 / RFU, PTTG1IP / Fold change vs veh, PTTG1IP / RFU, CAPN2 / Fold change vs veh, CAPN2 / RFU, MED14 / Fold change vs veh, MED14 / RFU, SNORA58 / Fold change vs veh, SNORA58 / RFU, C1orf63 / Fold change vs veh, C1orf63 / RFU, LRRFIP1 / Fold change vs veh, LRRFIP1 / RFU, NDUFAF7 / Fold change vs veh, NDUFAF7 / RFU, SLC12A2 / Fold change vs veh, SLC12A2 / RFU, IBTK / Fold change vs veh, IBTK / RFU, ESF1 / Fold change vs veh, ESF1 / Fold change vs veh, TMEM50B / RFU, TAOK1 / Fold change vs veh, TAOK1 / RFU, ACBD3 / Fold change vs veh, ACBD3 / RFU, TMA16 / Fold change vs veh, TMA16 / RFU, RWDD3 / Fold change vs veh, RWDD3 / RFU, BCAT1 / Fold change vs veh, BCAT1 / RFU, EDEM3 / Fold change vs veh, EDEM3 / RFU, TMEM33 / Fold change vs veh, TMEM33 / RFU, WDR75 / Fold change vs veh, WDR75 / RFU, AHCTF1 / Fold change vs veh, AHCTF1 / RFU, TFRC / Fold change vs veh, TFRC / RFU, ZDHHC17 / Fold change vs veh, ZDHHC17 / RFU, NOM1 / Fold change vs veh, NOM1 / RFU, ARL8B / Fold change vs veh, ARL8B / RFU, ZBTB11 / Fold change vs veh, ZBTB11 / RFU, TAMM41 / Fold change vs veh, TAMM41 / RFU, KIAA1704 /// LOC100996395 / Fold change vs veh, KIAA1704 /// LOC100996395 / RFU, ING1 / Fold change vs veh, ING1 / RFU, TRMT61B / Fold change vs veh, TRMT61B / RFU, FUBP3 / Fold change vs veh, FUBP3 / RFU, TP53 / Fold change vs veh, TP53 / RFU, TNKS2 / Fold change vs veh, TNKS2 / RFU, ZFP14 / Fold change vs veh, ZFP14 / RFU, ACTR2 / Fold change vs veh, ACTR2 / RFU, PPP3R1 / Fold change vs veh, PPP3R1 / RFU, PIK3R1 / Fold change vs veh, PIK3R1 / RFU, HNRNPA1 / Fold change vs veh, HNRNPA1 / RFU, RNF170 / Fold change vs veh, RNF170 / RFU, ZNF28 / Fold change vs veh, ZNF28 / RFU, RNGTT / Fold change vs veh, RNGTT / RFU, OGT / Fold change vs veh, OGT / RFU, BRD1 / Fold change vs veh, BRD1 / RFU, MARS / Fold change vs veh, MARS / RFU, ZNF655 / Fold change vs veh, ZNF655 / RFU, FAHD1 / Fold change vs veh, FAHD1 / RFU, BDP1 / Fold change vs veh, BDP1 / RFU, LRRCC1 / Fold change vs veh, LRRCC1 / RFU, ARID1A / Fold change vs veh, ARID1A / RFU, ZNF146 / Fold change vs veh, ZNF146 / RFU, ZNF330 / Fold change vs veh, ZNF330 / RFU, GPN3 / Fold change vs veh, GPN3 / RFU, C9orf123 / Fold change vs veh, C9orf123 / RFU, N4BP2L2 / Fold change vs veh, N4BP2L2 / RFU, ARFIP1 / Fold change vs veh, ARFIP1 / RFU, FAM179B / Fold change vs veh, FAM179B / RFU, BCL10 / Fold change vs veh, BCL10 / RFU, UHRF1BP1L / Fold change vs veh, UHRF1BP1L / RFU, BET1 / Fold change vs veh, BET1 / RFU, CNOT2 / Fold change vs veh, CNOT2 / RFU, ZNF268 / Fold change vs veh, ZNF268 / Fold change vs veh, ZNF507 / RFU, DGCR2 / Fold change vs veh, DGCR2 / RFU, WDSUB1 / Fold change vs veh, WDSUB1 / Fold change vs veh, HSP90B1 /// MIR3652 / RFU, ADSS / Fold change vs veh, ADSS / RFU, GK / Fold change vs veh, GK / RFU, ZNF148 / Fold change vs veh, ZNF148 / RFU, TAF9 / Fold change vs veh, TAF9 / RFU, SLC1A5 / Fold change vs veh, SLC1A5 / RFU, SLMO2 / Fold change vs veh, SLMO2 / RFU, ABCC4 / Fold change vs veh, ABCC4 / RFU, LOC101060439 /// RAP1B / Fold change vs veh, LOC101060439 /// RAP1B / RFU, RFX7 / Fold change vs veh, RFX7 / RFU, GTPBP10 / Fold change vs veh, GTPBP10 / RFU, CNEP1R1 / Fold change vs veh, CNEP1R1 / RFU, BIVM-ERCC5 /// ERCC5 / Fold change vs veh, BIVM-ERCC5 /// ERCC5 / RFU, ILF3 / Fold change vs veh, ILF3 / RFU 11762660_at / Fold change /veh 11762660_at / RFU VCAN (11757783_s_at) / Fold change /veh VCAN (11757783_s_at) / RFU DDX43 (11728927_at) / Fold change /veh DDX43 (11728927_at) / RFU KRT8 (11758188_x_at) / Fold change /veh KRT8 (11758188_x_at) / RFU NKD1 (11759106_at) / Fold change /veh NKD1 (11759106_at) / RFU SRD5A1 (11742802_a_at) / Fold change /veh SRD5A1 (11742802_a_at) / RFU TPSAB1 /// TPSB2 (11721975_s_at) / Fold change /veh TPSAB1 /// TPSB2 (11721975_s_at) / RFU GSTM3 (11746129_a_at) / Fold change /veh GSTM3 (11746129_a_at) / RFU IL23R (11737362_x_at) / Fold change /veh IL23R (11737362_x_at) / RFU TMEM51 (11727254_a_at) / Fold change /veh TMEM51 (11727254_a_at) / RFU PIWIL2 (11732686_x_at) / Fold change /veh PIWIL2 (11732686_x_at) / RFU ORM1 (11744905_x_at) / Fold change /veh ORM1 (11744905_x_at) / RFU CCDC152 (11743942_at) / Fold change /veh CCDC152 (11743942_at) / RFU ECM1 (11717891_a_at) / Fold change /veh ECM1 (11717891_a_at) / RFU IL23R (11748794_a_at) / Fold change /veh IL23R (11748794_a_at) / RFU TNFAIP8L3 (11732012_x_at) / Fold change /veh TNFAIP8L3 (11732012_x_at) / RFU MBOAT4 (11741988_at) / Fold change /veh MBOAT4 (11741988_at) / RFU 11764193_at / Fold change /veh 11764193_at / RFU TMEM53 (11763286_at) / Fold change /veh TMEM53 (11763286_at) / RFU MAGEB2 (11727129_at) / Fold change /veh MAGEB2 (11727129_at) / RFU TMEM200A (11744735_a_at) / Fold change /veh TMEM200A (11744735_a_at) / RFU CCDC152 (11751479_a_at) / Fold change /veh CCDC152 (11751479_a_at) / RFU FAM211A (11726209_a_at) / Fold change /veh FAM211A (11726209_a_at) / RFU RGS16 (11746705_a_at) / Fold change /veh RGS16 (11746705_a_at) / RFU VCAN (11755009_s_at) / Fold change /veh VCAN (11755009_s_at) / RFU RHOB (11743442_s_at) / Fold change /veh RHOB (11743442_s_at) / RFU RGS16 (11720943_a_at) / Fold change /veh RGS16 (11720943_a_at) / RFU RGS16 (11720944_at) / Fold change /veh RGS16 (11720944_at) / RFU, VPS4B / Fold change vs veh, VPS4B / RFU, CREB1 / Fold change vs veh, CREB1 / RFU, DNAJC13 / Fold change vs veh, DNAJC13 / RFU, GNAQ / Fold change vs veh, GNAQ / RFU, CDK5R1 / Fold change vs veh, CDK5R1 / RFU, ZRANB3 / Fold change vs veh, ZRANB3 / RFU, CUL4A / Fold change vs veh, CUL4A / RFU, CCNY / Fold change vs veh, CCNY / RFU, UFL1 / Fold change vs veh, UFL1 / RFU, COG3 / Fold change vs veh, COG3 / RFU, DIAPH2 / Fold change vs veh, DIAPH2 / RFU, SKA2 / Fold change vs veh, SKA2 / RFU, AFF3 / Fold change vs veh, AFF3 / RFU, LMF1 / Fold change vs veh, LMF1 / RFU, IPO11 / Fold change vs veh, IPO11 / RFU, DFFB / Fold change vs veh, DFFB / RFU, FOXP1 / Fold change vs veh, FOXP1 / RFU, CARD8 / Fold change vs veh, CARD8 / RFU, STRN3 / Fold change vs veh, STRN3 / RFU, ADK / Fold change vs veh, ADK / RFU, RASSF2 / Fold change vs veh, RASSF2 / RFU, WIPF1 / Fold change vs veh, WIPF1 / RFU, LARP1B / Fold change vs veh, LARP1B / RFU, RASA1 / Fold change vs veh, RASA1 / RFU, RB1 / Fold change vs veh, RB1 / RFU, PPFIA1 / Fold change vs veh, PPFIA1 / RFU, MAT2A / Fold change vs veh, MAT2A / RFU, CCT5 / Fold change vs veh, CCT5 / RFU, WDR92 / Fold change vs veh, WDR92 / RFU, CUX1 / Fold change vs veh, CUX1 / RFU, TTC7A / Fold change vs veh, TTC7A / RFU, TMEM135 / Fold change vs veh, TMEM135 / RFU, DEPTOR / Fold change vs veh, DEPTOR / RFU, CPM / Fold change vs veh, CPM / RFU, DNAJB6 / Fold change vs veh, DNAJB6 / RFU, CACNA2D3 / Fold change vs veh, CACNA2D3 / RFU, DTX4 / Fold change vs veh, DTX4 / RFU, TFCP2 / Fold change vs veh, TFCP2 / RFU, GMCL1 /// GMCL1P1 / Fold change vs veh, GMCL1 /// GMCL1P1 / RFU, AEBP2 / Fold change vs veh, AEBP2 / RFU, SNHG1 /// SNORD22 /// SNORD25 /// SNORD26 /// SNORD27 /// SNORD28 /// SNORD29 /// SNORD31 / Fold change vs veh, SNHG1 /// SNORD22 /// SNORD25 /// SNORD26 /// SNORD27 /// SNORD28 /// SNORD29 /// SNORD31 / Fold change (Aza/veh), C12orf56 (ProbeSet 11735607_a_at) / Fold change (ACY-1035/veh), C12orf56 (ProbeSet 11735607_a_at) / Fold change (Aza/veh), FGFR1OP (ProbeSet 11751329_s_at) / Fold change (ACY-1035/veh), FGFR1OP (ProbeSet 11751329_s_at) / Fold change (Aza/veh), VPS36 (ProbeSet 11739960_a_at) / Fold change (ACY-1035/veh), VPS36 (ProbeSet 11739960_a_at) / RFU SYPL1 (11715823_x_at) / Fold change /veh SYPL1 (11715823_x_at) / RFU IGFBP7 (11715501_s_at) / Fold change /veh IGFBP7 (11715501_s_at) / RFU REEP3 (11722064_at) / Fold change /veh REEP3 (11722064_at) / RFU IGLL1 (11728026_x_at) / Fold change /veh IGLL1 (11728026_x_at): dose or concentration left out as unconfirmed. To be noted: ProbeSet 11722463_a_at; LIST B.

For the molecule `Nc1ncn([C@@H]2O[C@H](CO)[C@@H](O)[C@H]2O)c(=O)n1` [azacitidine], the “RFU, TNKS2” value was 47.93 RFU.
